Test results reported in patent US10060935B2, “ApoIII and the treatment and diagnosis of diabetes” (BioCrine AB, priority 2003, dated 2018).
Entries after “also recorded” stand apart in the source; their conditions may differ.

What was measured:
[1] = test system: voltage-gated L-type Ca2+-channel; assay: Perforated-patch whole-cell patch clamp of Ca2+ currents in β-cells; format: cell-based, mouse; conditions: β-cells incubated with 10 μg/ml apoCIII overnight; depolarizations −10 to 10 mV from holding potential −70 mV
Description: Patch Clamp Whole-cell Ca^2+ currents were recorded by using the perforated-patch variant of the whole-cell patch-clamp recording technique to eliminate the loss of soluble cytoplasmic components. Electrodes were filled with (in mM): 76 Cs2SO4, 1 MgCl2, 10 KCl, 10 NaCl, and 5 HEPES (pH 7.35), as well as amphotericin B (0.24 mg/ml) to permeabilize the cell membrane and allow low-resistance electrical access without breaking the patch. Pancreatic β-cells were incubated in RPMI 1640 medium with apoCIII (10:g/ml) or vehicle overnight. The cells were bathed in a solution containing (in mM): 138 NaCl, 10 tetraethylammonium chloride, 10 CaCl2, 5.6 KCl, 1.2 MgCl2, 5 HEPES and 3 D-glucose (pH 7.4). Whole-cell currents induced by voltage pulses (from a holding potential of −70 mV to several clamping potentials from −60 to 50 mV in 10 mV increments, 100 ms, 0.5 Hz) were filtered at 1 kHz and recorded. All recordings were made with an Axopatch 200 amplifier (Axon Instruments, Foster City, Calif.) at room temperature (about 22° C.). Acquisition and analysis of data were done using the software program pCLAMP6 (Axon Instruments, Foster City, Calif.).

RINm5F cells = assay: Flow cytometric analysis of cell death (Annexin V / propidium iodide); format: cell-based; conditions: 40 μg/ml apoCIII added to culture medium with 10% control serum, 36 h
Description: Quantification of apoCIII Sera were collected and prepared as described above. The relative amounts of apoCIII in T1D serum and control serum, respectively were evaluated by comparisons of the peak area corresponding to apoCIII in the second RP-HPLC. • Flow Cytometric Analysis of Cell Death RINm5F cells were cultured for 36 h in the presence of 10% control serum, control serum and 40 μg/ml apoCIII or T1D serum with or without 100 or 200 μg/ml anti-apoCIII. The whole cell population was collected and stained with EGFP-conjugated Annexin V and propidium iodide (PI) (BD PharMingen) and analyzed on a FACscan using CELLQuest acquisition software (Becton Dickinson, Immunocytometry System). FACS gating, based on forward and side scatter, was used to exclude cellular debris and autofluorescence and typically 10 000 cells were selected for analysis.

pancreatic β-cells = assay: Measurements of [Ca2+]i (fura-2) in β-cells upon depolarization with 25 mM KCl; format: cell-based, mouse; conditions: for increase in [Ca2+]i / Ca2+ influx upon depolarization: 10 μg/ml, incubation of β-cells, versus vehicle (0.1% TFA) control
Description: Preparation of Cells Adult mice from a local colony (3) were starved overnight. Pancreatic islets were isolated by a collagenase technique and cell suspensions were prepared as previously described (4, 5). Cells were seeded onto glass coverslips and cultured at 37° C. in a humidified atmosphere of 5% CO2 in air. • Preparation and Purification of Sera: Sera from T1D patients and control subjects were collected, identically sterile-processed and stored frozen at −20° C. until used. The sera were heat-inactivated by incubation at 56° C. for 30 min. Thereafter β-cells were incubated overnight in RPMI 1640 culture medium with 10% of the sera and changes in [Ca^2+]i were recorded, subsequent to depolarization with 25 mM KCl. The five T1D sera that induced an enhanced [Ca^2+]i response were centrifuged and the supernatant was passed through a […] sterile filter. Samples were loaded on Sep-Pak C18 (Waters, Ma) preconditioned with 0.1% TFA. After a wash with 0.1% TFA, proteins were eluted with 60% acetonitrile in 0.1% TFA and thereafter lyophilized. Batches of one milligram of the lyophilized sample were dissolved in 500 μl 0.1% TFA, centrifuged and injected into a RP-HPLC with a Vydac C18 (0.46×25 cm) column (Grace Vydac, Hesperia, Ca). The separation was made using a linear gradient of 20-60% acetonitrile in 0.1% TFA for 40 min at 1 ml/min. Fractions of 1 ml were collected and lyophilized.
Measurements of [Ca^2+]i Cells, attached to coverslips, were pretreated with the different compounds as described in the results and thereafter incubated in basal medium with 2 μM fura-2AM (Molecular Probes, Eugene, Oreg.) for 30 min. The coverslips were mounted as the bottom of an open chamber and cells were perfused with medium. Fluorescence signals were recorded with a SPEX Fluorolog-2 system connected to an inverted Zeiss Axiovert epifluorescence microscope. The excitation and emission wavelengths were 340/380 and 510 nm, respectively. The results are presented as 340/380 excitation ratios, directly representative of [Ca^2+]i (7).

Ca2+-channel = assay: Immunoblot experiments for direct interaction with the Ca2+-channel; format: binding; conditions: immunoblot (data not shown)

Substance: apolipoprotein CIII [apoCIII]
- Ca2+-channel currents [1]: larger Ca^2+-channel currents than control cells; also recorded: activation of the voltage-gated L-type Ca^2+-channel
- cell death (RINm5F cells): increased cell death
- cell death (RINm5F cells; listed as ApoCIII): β-cell death
- increase in [Ca2+]i / Ca2+ influx upon depolarization (pancreatic β-cells): stimulate Ca^2+ influx
- increase in [Ca2+]i / Ca2+ influx upon depolarization (pancreatic β-cells; listed as ApoCIII): increase in [Ca^2+]i
- effect on [Ca2+]i (pancreatic β-cells; apoCIII 1, 3 and 6 μg/ml in culture medium): did not see any effects
- effect on [Ca2+]i (pancreatic β-cells; apoCIII 10-50 μg/ml in culture medium): responses
- direct interaction with the Ca2+-channel (Ca2+-channel): not revealed a direct interaction
